For this test, the target named is CYP2D6 (Homo sapiens, UniProt P10635). Briefly: biochemical.

“And” between values parts separate entries of the source, which are not always exact repeats. Identical values can stand only once.

Sequence of CYP2D6 (P10635 whole entry): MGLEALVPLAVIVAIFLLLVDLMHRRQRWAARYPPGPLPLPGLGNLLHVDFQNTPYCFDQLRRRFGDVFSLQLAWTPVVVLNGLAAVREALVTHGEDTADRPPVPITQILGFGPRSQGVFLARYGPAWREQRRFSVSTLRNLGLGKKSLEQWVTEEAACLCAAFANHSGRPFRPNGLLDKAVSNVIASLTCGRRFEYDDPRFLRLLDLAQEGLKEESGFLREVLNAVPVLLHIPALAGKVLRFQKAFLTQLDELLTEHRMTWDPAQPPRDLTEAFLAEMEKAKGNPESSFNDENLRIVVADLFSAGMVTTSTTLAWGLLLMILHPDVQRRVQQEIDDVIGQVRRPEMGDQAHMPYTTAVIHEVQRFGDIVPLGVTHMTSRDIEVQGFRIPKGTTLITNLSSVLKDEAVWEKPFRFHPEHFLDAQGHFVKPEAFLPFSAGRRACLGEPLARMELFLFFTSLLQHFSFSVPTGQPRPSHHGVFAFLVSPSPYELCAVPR

A word on the IC50: it is the point on the concentration scale where inhibition reaches its midpoint. The low end stands for greater potency in that assay, the high end for weaker potency in that assay. Regarding `COCC(=O)O[C@]1(CCN(C)CCCc2nc3ccccc3[nH]2)CCc2cc(F)ccc2[C@@H]1C(C)C` [Mibefradil, reference compound], the IC50 was 1320 nM and 440 nM.

For the origin of these results see patent publication US9833454B2, “Difluoromethoxy compound with low bioactivation potential for the reduction of beta-amyloid production” (BRISTOL-MYERS SQUIBB COMPANY, priority 2014, dated 2017).
